Measured values reported in US12428377B2, “Sodium-hydrogen exchanger 3 inhibitor compounds” (Eli Lilly and Company, priority 2019, dated 2025).
Several values for one entry are separate records, joined by “and”; a condition that tells them apart may be missing. Identical values can stand only once.

How the values were obtained:
Format in all cases: in vivo, rat
male Sprague Dawley rats [1] = assay: Radiolabeled phosphate absorption in rats, Studies 1-3 (plasma radioactivity); conditions: for Absorption (vs. vehicle control): mean ± SEM
Method: Effect of Example 2 in Combination with an NPT2b Inhibitor (Compound A) on Phosphate Absorption in Rats
NPT2b inhibitor dosing solutions: Compound A and poly-1-vinylpyrrolidone-co-vinyl acetate (PVP-VA, Sigma-Aldrich) are weighed into a bottle at a ratio of 30% Compound A and 70% PVP-VA by weight. A clear yellow solution is prepared by diluting the mixture in MeOH followed by the addition of 2 mol NaOH per mol Compound A using 5 N NaOH. The solution is spray dried by a stream of hot nitrogen and the solid dispersion powder is collected and then further dried in a vacuum oven. Doses for the sprayed dried solid dispersion (SDD) are expressed as active pharmaceutical ingredient (API) throughout.
To make the Compound A dosing solution, an appropriate amount of Compound A SDD is weighed in a vial and dissolved in water (10 mL/kg dosing volume). […] The subsequent solutions for lower doses are prepared by serial dilutions with water. PVP-VA at 7 mg/mL is used as a vehicle control.
NHE3 inhibitor dosing solutions: To make the Example 2 dosing solution, an appropriate amount of the compound is weighed in a vial and dissolved in 1% HEC (10 mL/kg dosing volume). […] The subsequent solutions for lower doses are prepared by serial dilutions with HEC.
To make the radiolabeled phosphate dosing solution, a 16.25 mM Na2HPO4, 0.9% saline, pH 7.4 solution is prepared and filtered using a sterile, 0.22 μm, polyethersulfone, Millex-GP Syringe Filter Unit (EMD Millipore). Radioactive phosphate (H3^33PO4, Perkin Elmer) is added at about 2.5 μCi per mL of the solution and filtered again.
Three separate studies are performed. In these studies, male Sprague Dawley rats, are randomized into groups with approximately equal mean body weights. Following an overnight fast, all the animals are dosed at 10 mL/kg with either vehicle, varying doses of Compound A (Study 1), varying doses of Example 2 (Study 2) or 1.2 mg/kg Compound A and varying doses of Example 2 (Study 3). 15 min later, radiolabeled phosphate is orally dosed in a 2 mL volume. 15 min later, blood is collected and plasma is prepared. Radioactivity (dpm) in 50 μL plasma is measured by scintillation counting and is used to calculate phosphate absorption. The results are normalized with the vehicle controls representing 100% absorption. The curves are fitted with nonlinear regression with variable slope using GraphPad Prism 6 to calculate the ED50 and Emax given in Table 7. […] No curve fit was performed for Compound A alone in Study 1.

male Sprague Dawley rats [2] = assay: Phosphate absorption 15 min after radiolabeled phosphate (Example 2, Compound A, combination); conditions: Compound A 10 mg/kg, plasma 15 min after radiolabeled phosphate, P=0.013 versus vehicle control
Method: Effect of Example 2 in Combination with an NPT2b Inhibitor (Compound A) on Phosphate Absorption and Intestinal Phosphate Retention in Rats
(§1) The purpose of this study is to investigate in rats the effect of Example 2, Compound A, and an Example 2/Compound A combination on phosphate absorption 15 min after dosing the compounds and the phosphate retained in the intestine 4.25 h after dosing the compounds. The latter is a measure of the oral phosphate load which is absorbed over an extended period.
(§2) Two vehicles are used in this study: 1) 1% HEC and 2) 0.46% poly-1-vinylpyrrolidone-co-vinyl acetate in water (PVP-VA vehicle). The vehicle control group in this study receives a 1:1 combination of the two vehicles.
The Example 2, Compound A and phosphate dosing solutions are prepared similarly as described above, except the doses are 0.4 mg/kg for Example 2 and 10 mg/kg for Compound A and they are prepared at a concentration where they would be dosed in a 5 mL/kg volume. […]
Male Sprague Dawley rats are fasted 4 h and then administered appropriate vehicles, 10 mg/kg Compound A, 0.4 mg/kg Example 2, or a combination of both compounds. […] Radioactivity in plasma is measured by scintillation counting and used to calculate the inhibition of phosphate absorption. […] Statistical significance is determined by ANOVA with a Dunnett's comparison to the Example 2/Compound A combination using JMP 12.1.

male Sprague Dawley rats [3] = assay: Intestinal phosphate retention: percent radiolabeled dose recovered in gastrointestinal tract; conditions: Compound A 10 mg/kg, 4 h after radiolabeled phosphate
Method: as §1, §2
The Example 2, Compound A and phosphate dosing solutions are prepared similarly as described above, except the doses are 0.4 mg/kg for Example 2 and 10 mg/kg for Compound A and they are prepared at a concentration where they would be dosed in a 5 mL/kg volume. The Example 2 and Compound A alone groups are mixed 1:1 with the vehicle of the other compound, while the Compound A and Example 2 are mixed 1:1 prior to dosing. The final dosing volume is 10 mL/kg in all cases.
4 h after the radiolabeled phosphate solution is dosed, stomach, small intestine, large intestine, and feces are collected, weighed and digested with 1N NaOH overnight at 37° C. Radioactivity in each fraction is measured by scintillation counting.
The percent dose recovered in gastrointestinal tract is defined as radioactivity recovered in stomach, small intestine, large intestine and feces compared to the amount dosed. Data is presented as mean±SEM with animal numbers equal to 8 for the groups. Statistical significance is determined by ANOVA with a Dunnett's comparison to the Example 2/Compound A combination using JMP 12.1.
The percent dose recovered in gastrointestinal tract data is further analyzed by a two-way ANOVA in JMP 12.1 to test for additivity of the effects of Example 2 and Compound A on inhibiting phosphate absorption. […] That is, the inhibitory effect of the combination is greater than the sum of the individual compound effects.

CC1(C)CN(C(=O)NCCCCO)CCN1Cc1cccc(C(=O)Nc2sc3c(c2C(=O)Nc2cc(F)c(CCc4ccc(C(=O)O)cc4)c(F)c2)CCCC3)c1 [Compound A, reference compound]
Absorption (vs. vehicle control) (male Sprague Dawley rats [1]; Study 1, rats, Compound A 0.01 mg/kg): 94.39 ± 7.88% | Absorption (vs. vehicle control) (male Sprague Dawley rats [1]; Study 1, rats, Compound A 0.1 mg/kg): 87.61 ± 6.08% | Absorption (vs. vehicle control) (male Sprague Dawley rats [1]; Study 1, rats, Compound A 1 mg/kg): 87.64 ± 7.26% | Absorption (vs. vehicle control) (male Sprague Dawley rats [1]; Study 1, rats, Compound A 10 mg/kg): 81.53 ± 5.50% | % Inhibition at the highest dose (phosphate absorption) (male Sprague Dawley rats [1]; Study 1, rats, Compound A highest dose tested (10 mg/kg)): 18% | Absorption (vs. vehicle control) (male Sprague Dawley rats [1]; Study 3, rats, Vehicle + Compound A 1.2 mg/kg): 71.00 ± 11.63% | Inhibition of phosphate absorption (male Sprague Dawley rats [2]): 35% | Percent Dose Recovered, Feces (male Sprague Dawley rats [3]): <0.1% | Percent Dose Recovered, Large Intestine (male Sprague Dawley rats [3]; mean ± SEM): 18.43 ± 2.03% | Percent Dose Recovered, Small Intestine (male Sprague Dawley rats [3]; mean ± SEM): 8.98 ± 0.48% | Percent Dose Recovered, Stomach (male Sprague Dawley rats [3]; mean ± SEM): 4.86 ± 1.13% | Percent Dose Recovered, Total (male Sprague Dawley rats [3]; mean ± SEM, 10 mg/kg): 32% and 32.27 ± 1.38%
